Earlier results, collected in patent publication US20260216081A1, “METFORMIN HYDROCHLORIDE ENTERIC-COATED PREPARATION” (YAYAN (TIANJIN) BIOMEDICAL TECHNOLOGY CENTER (LIMITED …, priority 2023, published 2026).

Conditions: background statement

CN(C)C(=N)N=C(N)N [metformin]
Incidence of gastrointestinal adverse reactions: 20-30%
